Data reported in ChEMBL document CHEMBL3046689, “Volatile aldehydes are promising broad-spectrum postharvest insecticides” (J Agric Food Chem, 2000).
≈ marks a conversion by molar mass, not a printed value. Calls of active or inactive are those of the source. The calls are words filed in the database; no cut-off is given here.

Legend:
[1] = test system: Myzus persicae; experiment: Insecticidal activity against Myzus persicae (green peach aphid) applied through two-tier reduced pressure fumigation at 30 mmHg for 0.5 hr and then 760 mmHg for 1.5 hr at 15 degC; assay type: functional; details: read-out: LD50 (the source's name)
[2] = test system: Myzus persicae; experiment: Potentiation factor, ratio of LD50 for Myzus persicae (green peach aphid) applied through atmospheric pressure fumigation at 760 mmHg for 2 hr at 23 +/- 1 degC to LD50 for Myzus persicae (green peach aphid) applied through two-tier reduced pressure fumigation at 30 mmHg for 0.5 hr and then 760 mmHg for 1.5 hr at 23 +/- 1 degC; assay type: functional
[3] = test system: Myzus persicae; experiment: Insecticidal activity against Myzus persicae (green peach aphid) applied through two-tier reduced pressure fumigation at 30 mmHg for 0.5 hr and then 760 mmHg for 1.5 hr at 23 +/- 1 degC; assay type: functional
[4] = test system: Myzus persicae; experiment: Insecticidal activity against Myzus persicae (green peach aphid) applied through atmospheric pressure fumigation at 760 mmHg for 2 hr at 23 +/- 1 degC; assay type: functional; details: read-out: LD50 (the source's name)
[5] = test system: Lactuca sativa; experiment: Phytotoxicity in naked Lactuca sativa (lettuce) assessed as change in visual quality after compound application through two-tier reduced pressure fumigation at 30 mmHg for 0.5 hr and then 760 mmHg for 1.5 hr at 23 +/- 1 degC after 2 hr; assay type: organism-based; details: in vivo
[6] = test system: Myzus persicae; experiment: Insecticidal activity against Myzus persicae (green peach aphid) placed under third leaf of naked Iceburg lettuce heads and after compound application for 2 hr through two-tier reduced pressure fumigation at 30 mmHg for 0.5 hr and then 760 mmHg for 1.5 hr at 23 +/- 1 degC measured after 24 hr; assay type: functional
[7] = test system: Tetranychus urticae; experiment: Insecticidal activity against Tetranychus urticae (two-spotted spider mite); assay type: functional, organism-based
[8] = test system: Brevicoryne brassicae; experiment: Insecticidal activity against Brevicoryne brassicae (cabbage aphids); assay type: functional, organism-based
[9] = test system: Frankliniella occidentalis; experiment: Insecticidal activity against Frankliniella occidentalis (western flower thrips); assay type: functional, organism-based
[10] = test system: Bemisia; experiment: Insecticidal activity against Bemisia sp.; assay type: functional, organism-based
[11] = test system: Pseudococcus affinis; experiment: Insecticidal activity against Pseudococcus affinis; assay type: functional, organism-based
[12] = test system: Pseudococcus viburni; experiment: Insecticidal activity against Pseudococcus viburni; assay type: functional, organism-based
[13] = test system: Lactuca sativa; experiment: Phytotoxicity in naked Lactuca sativa (lettuce) assessed as residual aldehyde odor after compound application through two-tier reduced pressure fumigation at 30 mmHg for 0.5 hr and then 760 mmHg for 1.5 hr at 23 +/- 1 degC after 2 hr; assay type: organism-based; details: in vivo
[14] = Myzus persicae, read-out: LD50 (the source's name)

Question: Which results are given for CCCC=O [BUTANAL]?
Answer: LC50 [1]: 31 µg/mL (≈ 430 µM); Ratio [2]: 2.4; CTP [3]: 21.6 mg/L.hr; LC50 [3, 14]: 10.8 µg/mL (≈ 150 µM); LC50 [4]: 26.1 µg/mL (≈ 362 µM); Activity [5]: Toxic; LD90 [6]: 177.5 mg/L; LC50 [6, 14]: 130 µg/mL (≈ 1800 µM); Activity [7]: inactive; Activity [8]: inactive; Activity [9]: Active; Activity [10]: Active; Activity [11]: Active; Activity [12]: Active; Activity [13]: Toxic
